Holding throughout (type): functional
Assay [1] concerns Mycobacterium tuberculosis. Put plainly: Antimycobacterial activity against isoniazid-resistant Mycobacterium tuberculosis H37Rv ATCC 35822 assessed as inhibition of bacterial growth incubated for 48 hrs by broth microdilution assay. A general note: Dilution methods test growth across graded concentrations, often in twofold steps.
Assay [2] relates to Mycobacterium tuberculosis. Put plainly: Antimycobacterial activity against rifampicin-resistant Mycobacterium tuberculosis H37Rv ATCC 35838 assessed as inhibition of bacterial growth incubated for 48 hrs by broth microdilution assay.
For assay [3], the system named is Mycobacterium tuberculosis. In words: Antimycobacterial activity against ethambutol-resistant Mycobacterium tuberculosis H37Rv ATCC 35837 assessed as inhibition of bacterial growth incubated for 48 hrs by broth microdilution assay.
For assay [4], the system named is Mycobacterium tuberculosis. Put plainly: Antimycobacterial activity against Streptomycin-resistant Mycobacterium tuberculosis H37Rv ATCC 35820 assessed as inhibition of bacterial growth incubated for 48 hrs by broth microdilution assay.

Converted amounts (≈) assume the structure as drawn.

As a reminder, the MIC is the least concentration at which growth counts as inhibited.

Take `COC(=O)c1cc(-c2cccc(NC(=O)c3ccc(/C=C/C(=O)c4ccc(N5CCOCC5)cc4)cc3)c2)on1`: the MIC in assay [1] came out at 0.12 µg/mL (≈ 0.223 µM); in assay [2] it was 0.12 µg/mL (≈ 0.223 µM); in assay [3] it was 0.12 µg/mL (≈ 0.223 µM); in assay [4], 2 µg/mL (≈ 3.72 µM).
On to `COC(=O)c1cc(-c2cccc(NC(=O)c3ccc(/C=C/C(=O)c4ccccc4Cl)cc3)c2)on1`, for which the MIC in assay [1] is 1 µg/mL (≈ 2.05 µM); in assay [2], 0.25 µg/mL (≈ 0.513 µM); in assay [3], 0.25 µg/mL (≈ 0.513 µM); in assay [4] it was 0.5 µg/mL (≈ 1.03 µM).
Consider `COC(=O)c1cc(-c2cccc(NC(=O)c3ccc(/C=C/C(=O)c4ccc(C)cc4)cc3)c2)on1`, for which the MIC in assay [1] was 0.5 µg/mL (≈ 1.07 µM); in assay [2] it was > 64 µg/mL; in assay [3], > 64 µg/mL; in assay [4] it was 0.25 µg/mL (≈ 0.536 µM).
Consider `COC(=O)c1cc(-c2cccc(NC(=O)c3ccc(/C=C/C(=O)c4cccc(Cl)c4)cc3)c2)on1`, for which the MIC in assay [1] was 0.5 µg/mL (≈ 1.03 µM); in assay [2] it was 0.5 µg/mL (≈ 1.03 µM); in assay [3], 0.12 µg/mL (≈ 0.246 µM); in assay [4] it was 0.5 µg/mL (≈ 1.03 µM).
For `COC(=O)c1cc(-c2ccc(NC(=O)c3ccc(/C=C/C(=O)c4ccc(Cl)cc4)cc3)cc2)on1`, the minimum inhibitory concentration (MIC) in assay [1] was 0.5 µg/mL (≈ 1.03 µM); in assay [2], 0.5 µg/mL (≈ 1.03 µM); in assay [3], 0.25 µg/mL (≈ 0.513 µM); in assay [4], 8 µg/mL (≈ 16.4 µM).
For the molecule `COC(=O)c1cc(-c2cccc(NC(=O)c3ccc(/C=C/C(=O)c4ccccc4C)cc3)c2)on1`, the MIC in assay [1] came out at 1 µg/mL (≈ 2.14 µM); in assay [2], 0.25 µg/mL (≈ 0.536 µM); in assay [3], 0.12 µg/mL (≈ 0.257 µM); in assay [4], 2 µg/mL (≈ 4.29 µM).
For `CC[C@@H](CO)NCCN[C@@H](CC)CO` [ETHAMBUTOL] the same measures were 4 µg/mL (≈ 19.6 µM), 1 µg/mL (≈ 4.89 µM), 32 µg/mL (≈ 157 µM) and 1 µg/mL (≈ 4.89 µM).
For `COC(=O)c1cc(-c2cccc(NC(=O)c3ccc(/C=C/C(=O)c4ccc(F)cc4F)cc3)c2)on1` the same measures were 1 µg/mL (≈ 2.05 µM), 0.25 µg/mL (≈ 0.512 µM), 0.12 µg/mL (≈ 0.246 µM) and 2 µg/mL (≈ 4.09 µM).
The matching figures for `NNC(=O)c1ccncc1` [ISONIAZID]: > 64 µg/mL, 0.03 µg/mL (≈ 0.219 µM), 0.03 µg/mL (≈ 0.219 µM) and 0.03 µg/mL (≈ 0.219 µM).
In the case of `CN[C@@H]1[C@H](O[C@H]2[C@H](O[C@H]3[C@H](O)[C@@H](O)[C@H](N=C(N)N)[C@@H](O)[C@@H]3N=C(N)N)O[C@@H](C)[C@]2(O)C=O)O[C@@H](CO)[C@H](O)[C@H]1O` [STREPTOMYCIN], the minimal inhibitory concentration (MIC) in assay [1] was 1 µg/mL (≈ 1.72 µM); in assay [2], 1 µg/mL (≈ 1.72 µM); in assay [3] it was 2 µg/mL (≈ 3.44 µM); in assay [4], > 64 µg/mL.
With `CCOC(=O)c1cc(/C=C/c2c(Cl)cncc2Cl)on1`, the minimum inhibitory concentration (MIC) in assay [1] was found to be 4 µg/mL (≈ 12.8 µM); in assay [2], 1 µg/mL (≈ 3.19 µM); in assay [3], 8 µg/mL (≈ 25.5 µM); in assay [4], 8 µg/mL (≈ 25.5 µM).
Regarding `CCOC(=O)c1cc(-c2cccc(NC(=O)c3ccc(/C=C/C(=O)c4ccc(Cl)cc4)cc3)c2)on1`, the MIC in assay [1] is 32 µg/mL (≈ 63.9 µM); in assay [2], 0.5 µg/mL (≈ 0.998 µM); in assay [3] it was 4 µg/mL (≈ 7.99 µM); in assay [4], 64 µg/mL (≈ 128 µM).
As to `CCOc1ccc(C(=O)/C=C/c2ccc(C(=O)Nc3cccc(-c4cc(C(=O)OC)no4)c3)cc2)cc1`, the MIC turned out to be 0.5 µg/mL (≈ 1.01 µM) in assay [1], 0.03 µg/mL (≈ 0.0604 µM) in assay [2], 0.06 µg/mL (≈ 0.121 µM) in assay [3] and 0.5 µg/mL (≈ 1.01 µM) in assay [4].
With `CO[C@H]1/C=C/O[C@@]2(C)Oc3c(C)c(O)c4c(O)c(c(/C=N/N5CCN(C)CC5)c(O)c4c3C2=O)NC(=O)/C(C)=C\C=C\[C@H](C)[C@H](O)[C@@H](C)[C@@H](O)[C@@H](C)[C@H](OC(C)=O)[C@@H]1C` [RIFAMPIN], the minimal inhibitory concentration (MIC) was determined as 0.03 µg/mL (≈ 0.0365 µM) in assay [1], 64 µg/mL (≈ 77.8 µM) in assay [2], 0.03 µg/mL (≈ 0.0365 µM) in assay [3] and 0.03 µg/mL (≈ 0.0365 µM) in assay [4].
For the molecule `COC(=O)c1cc(-c2cccc(NC(=O)c3ccc(/C=C/C(=O)c4ccc(OC)cc4OC)cc3)c2)on1`, the MIC turned out to be 2 µg/mL (≈ 3.9 µM) in assay [1], 0.25 µg/mL (≈ 0.488 µM) in assay [2], 0.25 µg/mL (≈ 0.488 µM) in assay [3] and 2 µg/mL (≈ 3.9 µM) in assay [4].
Consider `COC(=O)c1cc(-c2cccc(NC(=O)c3ccc(/C=C/C(=O)c4ccc(Cl)cc4Cl)cc3)c2)on1`, for which the MIC in assay [1] is > 64 µg/mL; in assay [2] it was 64 µg/mL (≈ 123 µM); in assay [3], > 64 µg/mL; in assay [4] it was 1 µg/mL (≈ 1.92 µM).
For `CCCOc1ccc(C(=O)/C=C/c2ccc(C(=O)Nc3cccc(-c4cc(C(=O)OC)no4)c3)cc2)cc1`, the MIC in assay [1] was found to be 0.12 µg/mL (≈ 0.235 µM); in assay [2] it was 0.03 µg/mL (≈ 0.0588 µM); in assay [3], 0.06 µg/mL (≈ 0.118 µM); in assay [4], 2 µg/mL (≈ 3.92 µM).
Take `COC(=O)c1cc(-c2cccc(NC(=O)c3ccc(/C=C/C(=O)c4ccc(CC(C)C)cc4)cc3)c2)on1`: the minimum inhibitory concentration (MIC) in assay [1] is > 64 µg/mL; in assay [2] it was 16 µg/mL (≈ 31.5 µM); in assay [3], > 64 µg/mL; in assay [4], 1 µg/mL (≈ 1.97 µM).
`COC(=O)c1cc(-c2cccc(NC(=O)c3ccc(/C=C/C(=O)c4ccc(Cl)cc4)cc3)c2)on1`: the MIC in assay [1] is > 64 µg/mL; in assay [2], 2 µg/mL (≈ 4.11 µM); in assay [3] it was > 64 µg/mL; in assay [4], 2 µg/mL (≈ 4.11 µM).

The values above are taken from ChEMBL document CHEMBL4823271, “Synthesis and structure-activity relationship of new chalcone linked 5-phenyl-3-isoxazolecarboxylic acid methyl esters potentially active against drug resistant Mycobacterium tuberculosis” (Eur J Med Chem, 2021).
